# Experimental data: patent US20250230193A1, “CYCLIC COMPOUND HAVING SELECTIVE KRAS INHIBITORY EFFECT ON HRAS AND NRAS” (CHUGAI SEIYAKU KABUSHIKI KAISHA, priority 2022, published 2025)
# Where a SMILES comes first, the peptide text is derived from it. Bridges are numbered along the chain shown (N, C = ends). [ ]: non-standard residue; d: D form. The star is where a group is joined. hPhe(3-Cl-4-CF3) = N[C@@H](CCc1ccc(C(F)(F)F)c(Cl)c1)C(=O)O; NPrPhe(4-CF3) = CCCN[C@@H](Cc1ccc(C(F)(F)F)cc1)C(=O)O; NEtPhe(4-Me) = CCN[C@@H](Cc1ccc(C)cc1)C(=O)O; NMeGly(cPent) = CN[C@H](C(=O)O)C1CCCC1; Piperidide(4-Me) = CC1CCN(*)CC1; NMeD = CN[C@@H](CC(=O)O)C(=O)O; NMeL = CN[C@@H](CC(C)C)C(=O)O; Morpholide = C1CN(*)CCO1; NMeA = CN[C@@H](C)C(=O)O; Ac5c = NC1(C(=O)O)CCCC1; Aze = O=C(O)[C@@H]1CCN1; NEtG = CCNCC(=O)O; Sar = CNCC(=O)O
# Tests used:
# [1] = target: GDP-bound HRAS wild-type protein (Homo sapiens, UniProt P01112); experiment: Binding to HRAS by surface plasmon resonance (SPR), Single Cycle Kinetics; conditions: KD ratio HRAS/KRAS
# [2] = target: GDP-bound NRAS wild-type protein (Homo sapiens, UniProt P01111); experiment: Binding to NRAS by surface plasmon resonance (SPR), Single Cycle Kinetics; conditions: KD ratio NRAS/KRAS
# [3] = SPR, GDP-bound wild-type proteins
# GDP-bound HRAS wild-type protein, sequence (P01112 whole entry): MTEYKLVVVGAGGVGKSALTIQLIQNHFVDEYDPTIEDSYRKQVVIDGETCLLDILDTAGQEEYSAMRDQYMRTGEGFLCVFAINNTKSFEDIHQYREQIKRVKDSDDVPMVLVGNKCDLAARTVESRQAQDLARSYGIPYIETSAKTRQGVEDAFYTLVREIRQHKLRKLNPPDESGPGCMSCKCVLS
# GDP-bound NRAS wild-type protein, sequence (P01111 whole entry): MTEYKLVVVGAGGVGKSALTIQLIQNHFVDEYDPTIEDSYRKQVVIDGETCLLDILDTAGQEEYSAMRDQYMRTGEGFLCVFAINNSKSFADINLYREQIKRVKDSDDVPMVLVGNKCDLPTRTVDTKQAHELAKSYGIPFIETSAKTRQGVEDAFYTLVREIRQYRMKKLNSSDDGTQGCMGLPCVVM
smiles,measurement,setting,value
CCO[C@@H]1C[C@H]2C(=O)NC3(CCC3)C(=O)N(C)[C@@H](C3CCCC3)C(=O)N(C)[C@H](C(=O)N3CCOCC3)CC(=O)N(C)[C@@H](CCOC)C(=O)N[C@@H]([C@@H](C)CC)C(=O)N(C)CC(=O)N(C)[C@H]3CCCCN(C3=O)[C@@H](Cc3ccc(C(F)(F)F)cc3)C(=O)N(C)CC(=O)N[C@@H](CCc3cc(F)c(C(F)(F)F)c(F)c3)C(=O)N2C1 [PP0720],HRAS/KRAS (ratio of KD value with respect to GDP-bound HRAS wild-type protein to KD value with respect to KRAS),[1]; SPR,B (a compound having 3 or more and less than 10 is denoted as B)
same,NRAS/KRAS (ratio of KD value with respect to GDP-bound NRAS wild-type protein to KD value with respect to KRAS),[2]; SPR,C (A compound having a KD ratio of 0.1 or more and less than 3 is denoted as C)
CCC[C@H]1C(=O)N[C@@H]([C@@H](C)CC)C(=O)N(C2CC2)CC(=O)N(C)[C@H]2C/C=C\CCN(C2=O)[C@@H](Cc2ccc(C)cc2)C(=O)N(C)CC(=O)N[C@@H](CCc2cc(F)c(C(F)(F)F)c(F)c2)C(=O)N2C[C@H](OCC)C[C@H]2C(=O)NC2(CC(C)(C)C2)C(=O)N(C)[C@@H](CC(C)(C)C)C(=O)N(C)[C@H](C(=O)N(C)C)CC(=O)N1C [PP2718],HRAS/KRAS (ratio of KD value with respect to GDP-bound HRAS wild-type protein to KD value with respect to KRAS),[1]; class symbols,A (a compound having 10 or more and less than 20 is denoted as A)
same,NRAS/KRAS (ratio of KD value with respect to GDP-bound NRAS wild-type protein to KD value with respect to KRAS),[2]; class symbols,A (a compound having 10 or more and less than 20 is denoted as A)
CC[C@H](C)[C@@H]1NC(=O)[C@H](CC)N(C)C(=O)C[C@@H](C(=O)N(C)C)N(C)C(=O)[C@H](C2CCCC2)N(C)C(=O)C2(CCC2)NC(=O)[C@@H]2CCCCN2C(=O)[C@H](CCc2cc(F)c(C(F)(F)F)c(F)c2)NC(=O)CN(C)C(=O)[C@H](Cc2ccc(C(F)(F)F)cc2)N2CCCCC[C@@H](C2=O)N(C)C(=O)CN(C)C1=O [PP0655],HRAS/KRAS (ratio of KD value with respect to GDP-bound HRAS wild-type protein to KD value with respect to KRAS),[1]; SPR,B (a compound having 3 or more and less than 10 is denoted as B)
same,NRAS/KRAS (ratio of KD value with respect to GDP-bound NRAS wild-type protein to KD value with respect to KRAS),[2]; SPR,B (a compound having 3 or more and less than 10 is denoted as B)
C#CC[C@H]1C(=O)N[C@@H]([C@@H](C)CC)C(=O)N(C)CC(=O)N(C)[C@H]2CCCCN(C2=O)[C@@H](Cc2ccc(C(F)(F)F)cc2)C(=O)N(C)CC(=O)N[C@@H](CCc2cc(F)c(C(F)(F)F)c(F)c2)C(=O)N2C[C@H](OCC)C[C@H]2C(=O)NC2(CCC2)C(=O)N(C)[C@@H](C2CCCC2)C(=O)N(C)[C@H](C(=O)N(C)C)CC(=O)N1C [PP0696],HRAS/KRAS (ratio of KD value with respect to GDP-bound HRAS wild-type protein to KD value with respect to KRAS),[1]; SPR,B (a compound having 3 or more and less than 10 is denoted as B)
same,NRAS/KRAS (ratio of KD value with respect to GDP-bound NRAS wild-type protein to KD value with respect to KRAS),[2]; SPR,B (a compound having 3 or more and less than 10 is denoted as B)
CCCN1C(=O)[C@@H]2CCN2C(=O)[C@H](C)N(C)C(=O)[C@H]([C@@H](C)CC)NC(=O)[C@H](CC(C)C)N(C)C(=O)C[C@@H](C(=O)N2CCC(C)CC2)N(C)C(=O)[C@H](C2CCCC2)N(C)C(=O)C2(CCCC2)NC(=O)[C@@H]2CCCN2C(=O)[C@H](CCc2ccc(C(F)(F)F)c(Cl)c2)NC(=O)CN(C)C(=O)[C@@H]1Cc1ccc(C(F)(F)F)cc1 [PP0185] ([NMeL]I[NMeA][Aze][NPrPhe(4-CF3)][Sar][hPhe(3-Cl-4-CF3)]P[Ac5c][NMeGly(cPent)][NMeD]-{Piperidide(4-Me)}; lactam N-11),HRAS/KRAS (ratio of KD for GDP-bound HRAS wild-type to KD for KRAS),[1]; SPR,B (a compound having 3 or more and less than 10 is denoted as B)
same,NRAS/KRAS (ratio of KD for GDP-bound NRAS wild-type to KD for KRAS),[2]; SPR,C (A compound having a KD ratio of 0.1 or more and less than 3 is denoted as C)
C#CC[C@H]1C(=O)N[C@@H]([C@@H](C)CC)C(=O)N(C)CC(=O)N(C)[C@H]2C/C=C\CCN(C2=O)[C@@H](Cc2ccc(C)cc2)C(=O)N(C)CC(=O)N[C@@H](CCc2cc(F)c(C(F)(F)F)c(F)c2)C(=O)N2CC3(CC3)C[C@H]2C(=O)NC2(CC(C)(C)C2)C(=O)N(C)[C@@H](C2CCCC2)C(=O)N(C)[C@H](C(=O)N(C)C)CC(=O)N1C [PP2978],HRAS/KRAS (ratio of KD value with respect to GDP-bound HRAS wild-type protein to KD value with respect to KRAS),[1]; [3],A (a compound having 10 or more and less than 20 is denoted as A)
same,NRAS/KRAS (ratio of KD value with respect to GDP-bound NRAS wild-type protein to KD value with respect to KRAS),[2]; [3],A (a compound having 10 or more and less than 20 is denoted as A)
CC[C@H](C)[C@@H]1NC(=O)[C@H](CC(C)C)N(C)C(=O)C[C@@H](C(=O)N2CCOCC2)N(C)C(=O)[C@H](C2CCCC2)N(C)C(=O)C2(CCCC2)NC(=O)[C@@H]2CCCN2C(=O)[C@H](CCc2ccc(C(F)(F)F)c(Cl)c2)NC(=O)CN(C)C(=O)[C@H](Cc2ccc(C)cc2)N(CC)C(=O)CN(CC)C(=O)CN(C)C1=O [PP0027] ([NMeL]I[Sar][NEtG][NEtPhe(4-Me)][Sar][hPhe(3-Cl-4-CF3)]P[Ac5c][NMeGly(cPent)][NMeD]-Morpholide; lactam N-11),HRAS/KRAS (ratio of KD for GDP-bound HRAS wild-type to KD for KRAS),[1]; SPR,C (A compound having a KD ratio of 0.1 or more and less than 3 is denoted as C)
same,NRAS/KRAS (ratio of KD for GDP-bound NRAS wild-type to KD for KRAS),[2]; SPR,C (A compound having a KD ratio of 0.1 or more and less than 3 is denoted as C)
